The results in this text go back to PubChem BioAssay AID743235 (The Scripps Research Institute Molecular Screening Center, 2013).

SMILES strings stand for the structures. Active and inactive are the calls of the source. How the calls were made is not given here.

This assay deals with Counterscreen cells for TAAR1 agonist assay, fluorescence. Briefly: TAAR1 agonist activity of antagonist hits, late-stage follow-up, counter-screen for TAAR1 antagonist project, cell-based, fluorescence, human (AID 743235). In general terms: The purpose of a counterscreen is to sort out artefacts and off-target activity.
On to `Cc1ccc(CSCC(=O)Nc2cc(S(=O)(=O)N3CCOCC3)ccc2OCC(F)(F)F)cc1`, for which the EC50 (usually the concentration needed to bring the measured effect to its halfway point) is > 29.9 µM (inactive).

Regarding `COc1cccc(-c2nn(-c3ccccc3)cc2C(=O)Nc2nccs2)c1`, the EC50 was > 29.9 µM (inactive). As to `Cc1cccc(C(C#N)c2nc3ccccc3nc2C(F)(F)F)c1` (stereo unspecified), the EC50 was > 29.9 µM (inactive). In the case of `COc1cc(NC(=O)c2cc3ccccc3o2)c(OC)cc1Cl` it was > 29.9 µM (inactive); in that of `CCOC(=O)C1CCCN(c2c(C(=O)c3ccccc3)cnc3ccc(OC)cc23)C1` (stereo unspecified), 20.1 µM (inactive). For the molecule `O=C(NCCn1cc(SCc2ccccc2F)c2ccccc21)c1c(F)cccc1F`, the EC50 was > 29.9 µM (inactive).
